Measured values as given in patent US9738634B2, “Heterocyclic amide compound and herbicide” (SYNGENTA PARTICIPATIONS AG, priority 2013, dated 2017).

Experiments:
Assay type in all cases: in vivo
beet = test: Test Example 3: soil treatment, effect on crop; f: beet; settings: soil treatment, treatment dosage 315 g/ha
Summary of the method: (§1)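 Crop and weed responses were judged three weeks after a uniform surface spray of the water-diluted emulsion at the given g/ha rate. Seeds sat beneath about 1.5 cm of sterilized diluvial soil, and boxes stood in a greenhouse at 25 to 30° C.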

oval-leafed pondweed [1] = test: Test Example 2: weedkilling efficacy, growth period weed treatment in the submerged state; C: oval-leafed pondweed; settings: treatment dosage 252 g/ha
Summary of the method: (§2)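 First, alluvial soil in pots is flooded to 4 cm and mixed seed is sown. Next, plants grow in a greenhouse at 25 to 30° C until the 1-2 leaf stage. Then diluted emulsion is applied onto the water surface at the given g/ha rate, and injury is assessed after 3 weeks.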

birds-eye speedwell = test: Test Example 3: weedkilling efficacy through soil treatment; p: birds-eye speedwell; settings: soil treatment, treatment dosage 315 g/ha
Excerpt: Weedkilling Efficacy Test Through Soil Treatment
Sterilized diluvial soil was introduced into 21 cm long, 13 cm wide, 7 cm deep plastic boxes, and seeds of crabgrass, green foxtail, barnyard grass, wild oat, black-grass, Italian ryegrass, common wind-grass, Indian mallow, redroot pigweed, fig-leafed goosefoot, chickweed, catchweed, birds-eye speedwell, corn, soybean, rice, wheat, beet and rapeseed were each spot-sown, and covered with about 1.5 cm of soil. Next, emulsions of compounds of the present invention prepared according to compounding example 2 were diluted with water to give the specified dosages, and applied uniformly onto the soil surface with a small sprayer. The plants were grown by placing the plastic boxes in a greenhouse at 25 to 30° C., and 3 weeks after the pesticide treatment the effect on each type of plant was investigated on the basis of the assessment criteria of test example 1.
A: barnyard grass, B: bulrush, C: oval-leafed pondweed, D: crabgrass, E: green foxtail, F: barnyard grass, G: wild oat, H: black-grass, I: Italian ryegrass, J: common wind-grass, K: Indian mallow, L: redroot pigweed, M: fig-leafed goosefoot, N: chickweed, O: catchweed, p: birds-eye speedwell, a: transplanted rice, b: directly sown rice, c: corn, d: soybean, e: wheat, f: beet, g: rapeseed
Further, pesticide dosage (g/ha) indicates the concentration regulated such that treatment was with only the stated number of grams (g), when calculated per hectare (ha).

wheat = test: Test Example 3: soil treatment, effect on crop; e: wheat; settings: soil treatment, treatment dosage 315 g/ha
Summary of the method: as §1

chickweed = test: Test Example 3: weedkilling efficacy through soil treatment; N: chickweed; settings: soil treatment, treatment dosage 315 g/ha
Summary of the method: as §1

Italian ryegrass = test: Test Example 3: weedkilling efficacy through soil treatment; I: Italian ryegrass; settings: soil treatment, treatment dosage 315 g/ha
Summary of the method: as §1

wild oat = test: Test Example 3: weedkilling efficacy through soil treatment; G: wild oat; settings: soil treatment, treatment dosage 315 g/ha
Summary of the method: as §1

crabgrass = test: Test Example 3: weedkilling efficacy through soil treatment; D: crabgrass; settings: soil treatment, treatment dosage 315 g/ha
Summary of the method: as §1

soybean = test: Test Example 3: soil treatment, effect on crop; d: soybean; settings: soil treatment, treatment dosage 315 g/ha
Summary of the method: as §1

bulrush [2] = test: Test Example 2: weedkilling efficacy, growth period weed treatment in the submerged state; B: bulrush; settings: treatment dosage 252 g/ha
Summary of the method: as §2

directly sown rice = test: Test Example 3: soil treatment, effect on crop; b: directly sown rice; settings: soil treatment, treatment dosage 315 g/ha
Summary of the method: as §1

black-grass = test: Test Example 3: weedkilling efficacy through soil treatment; H: black-grass; settings: soil treatment, treatment dosage 315 g/ha
Summary of the method: as §1

Indian mallow = test: Test Example 3: weedkilling efficacy through soil treatment; K: Indian mallow; settings: soil treatment, treatment dosage 315 g/ha
Summary of the method: as §1

barnyard grass [3] = test: Test Example 2: weedkilling efficacy, growth period weed treatment in the submerged state; A: barnyard grass; settings: treatment dosage 252 g/ha
Summary of the method: as §2

green foxtail = test: Test Example 3: weedkilling efficacy through soil treatment; E: green foxtail; settings: soil treatment, treatment dosage 315 g/ha
Summary of the method: as §1

redroot pigweed = test: Test Example 3: weedkilling efficacy through soil treatment; L: redroot pigweed; settings: soil treatment, treatment dosage 315 g/ha
Summary of the method: as §1

barnyard grass [4] = test: Test Example 1: weedkilling efficacy, preemergent weed treatment in the submerged state; A: barnyard grass; settings: treatment dosage 252 g/ha
Summary of the method: (§3)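 Emulsion diluted with water to the specified per-hectare dosage is applied onto flood water (4 cm) over alluvial soil on the sowing day, with barnyard grass, bulrush and pondweed seeded and rice (2.5-leaf) transplanted; plants grow at 25–30 °C and are rated at 3 weeks.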

corn = test: Test Example 3: soil treatment, effect on crop; c: corn; settings: soil treatment, treatment dosage 315 g/ha
Summary of the method: as §1

oval-leafed pondweed [5] = test: Test Example 1: weedkilling efficacy, preemergent weed treatment in the submerged state; C: oval-leafed pondweed; settings: treatment dosage 252 g/ha
Summary of the method: as §3

transplanted rice = test: Test Example 1: preemergent weed treatment in the submerged state, effect on crop; a: transplanted rice; settings: treatment dosage 252 g/ha
Summary of the method: as §3

bulrush [6] = test: Test Example 1: weedkilling efficacy, preemergent weed treatment in the submerged state; B: bulrush; settings: treatment dosage 252 g/ha
Summary of the method: as §3

fig-leafed goosefoot = test: Test Example 3: weedkilling efficacy through soil treatment; M: fig-leafed goosefoot; settings: soil treatment, treatment dosage 315 g/ha
Summary of the method: as §1

Row | Compound | f: beet, effect on crop grade (beet) | C (oval-leafed pondweed) weedkilling efficacy grade (oval-leafed pondweed [1]) | P: birds-eye speedwell, weedkilling efficacy grade (birds-eye speedwell) | e: wheat, effect on crop grade (wheat) | N: chickweed, weedkilling efficacy grade (chickweed) | I: Italian ryegrass, weedkilling efficacy grade (Italian ryegrass) | G: wild oat, weedkilling efficacy grade (wild oat) | D: crabgrass, weedkilling efficacy grade (crabgrass) | d: soybean, effect on crop grade (soybean) | B (bulrush) weedkilling efficacy grade (bulrush [2]) | b: directly sown rice, effect on crop grade (directly sown rice) | H: black-grass, weedkilling efficacy grade (black-grass) | K: Indian mallow, weedkilling efficacy grade (Indian mallow) | A (barnyard grass) weedkilling efficacy grade (barnyard grass [3]) | E: green foxtail, weedkilling efficacy grade (green foxtail) | L: redroot pigweed, weedkilling efficacy grade (redroot pigweed) | A: barnyard grass, weed kill grade (barnyard grass [4]) | c: corn, effect on crop grade (corn) | C: oval-leafed pondweed, weed kill grade (oval-leafed pondweed [5]) | a: transplanted rice, effect on crop grade (transplanted rice) | other results
1 | CC(C)(C(=O)Nc1cccc(Br)n1)N1COCN(c2ccccc2)C1=O [A-2-09] | 4 (weed kill ratio 70% or more, less than 90%) | 5 (weed kill ratio 90% or more, (practically complete withering)) | 5 (weed kill ratio 90% or more, (practically complete withering)) | 1 (weed kill ratio 5% or more, less than 20%) | 4 (weed kill ratio 70% or more, less than 90%) | 5 (weed kill ratio 90% or more, (practically complete withering)) | 5 (weed kill ratio 90% or more, (practically complete withering)) | 5 (weed kill ratio 90% or more, (practically complete withering)) | 3 (weed kill ratio 40% or more, less than 70%) | 5 (weed kill ratio 90% or more, (practically complete withering)) | 5 (weed kill ratio 90% or more, (practically complete withering)) | 5 (weed kill ratio 90% or more, (practically complete withering)) | 3 (weed kill ratio 40% or more, less than 70%) | 5 (weed kill ratio 90% or more, (practically complete withering)) | 5 (weed kill ratio 90% or more, (practically complete withering)) | 5 (weed kill ratio 90% or more, (practically complete withering)) | 5 (weed kill ratio 90% or more, (practically complete withering)) | 3 (weed kill ratio 40% or more, less than 70%) | 5 (weed kill ratio 90% or more, (practically complete withering)) | 0 (weed kill ratio 5% or less (practically no effect)) | B: bulrush, weed kill grade (bulrush [6]): 5 (weed kill ratio 90% or more, (practically complete withering)); M: fig-leafed goosefoot, weedkilling efficacy grade (fig-leafed goosefoot): 4 (weed kill ratio 70% or more, less than 90%)
2 | CC(C)(C(=O)Nc1ccccn1)N1COCN(c2ccccc2)C1=O [A-2-01] | 0 (weed kill ratio 5% or less (practically no effect)) | 2 (weed kill ratio 20% or more, less than 40%) | 5 (weed kill ratio 90% or more, (practically complete withering)) | 0 (weed kill ratio 5% or less (practically no effect)) | 3 (weed kill ratio 40% or more, less than 70%) | 5 (weed kill ratio 90% or more, (practically complete withering)) | 2 (weed kill ratio 20% or more, less than 40%) | 4 (weed kill ratio 70% or more, less than 90%) | 2 (weed kill ratio 20% or more, less than 40%) | 5 (weed kill ratio 90% or more, (practically complete withering)) | 3 (weed kill ratio 40% or more, less than 70%) | 5 (weed kill ratio 90% or more, (practically complete withering)) | 0 (weed kill ratio 5% or less (practically no effect)) | 3 (weed kill ratio 40% or more, less than 70%) | 4 (weed kill ratio 70% or more, less than 90%) | 3 (weed kill ratio 40% or more, less than 70%) | 5 (weed kill ratio 90% or more, (practically complete withering)) | 0 (weed kill ratio 5% or less (practically no effect)) | 4 (weed kill ratio 70% or more, less than 90%) | 0 (weed kill ratio 5% or less (practically no effect)) | B: bulrush, weed kill grade (bulrush [6]): 5 (weed kill ratio 90% or more, (practically complete withering)); M: fig-leafed goosefoot, weedkilling efficacy grade (fig-leafed goosefoot): 4 (weed kill ratio 70% or more, less than 90%)
3 | CC(C)(C(=O)Nc1cccc(F)n1)N1COCN(c2ccccc2)C1=O [A-2-05] | 5 (weed kill ratio 90% or more, (practically complete withering)) | 4 (weed kill ratio 70% or more, less than 90%) | 5 (weed kill ratio 90% or more, (practically complete withering)) | 4 (weed kill ratio 70% or more, less than 90%) | 4 (weed kill ratio 70% or more, less than 90%) | 5 (weed kill ratio 90% or more, (practically complete withering)) | 5 (weed kill ratio 90% or more, (practically complete withering)) | 5 (weed kill ratio 90% or more, (practically complete withering)) | 4 (weed kill ratio 70% or more, less than 90%) | 5 (weed kill ratio 90% or more, (practically complete withering)) | 5 (weed kill ratio 90% or more, (practically complete withering)) | 5 (weed kill ratio 90% or more, (practically complete withering)) | 3 (weed kill ratio 40% or more, less than 70%) | 4 (weed kill ratio 70% or more, less than 90%) | 5 (weed kill ratio 90% or more, (practically complete withering)) | 5 (weed kill ratio 90% or more, (practically complete withering)) | 5 (weed kill ratio 90% or more, (practically complete withering)) | 4 (weed kill ratio 70% or more, less than 90%) | 5 (weed kill ratio 90% or more, (practically complete withering)) | 3 (weed kill ratio 40% or more, less than 70%) | B: bulrush, weed kill grade (bulrush [6]): 5 (weed kill ratio 90% or more, (practically complete withering)); M: fig-leafed goosefoot, weedkilling efficacy grade (fig-leafed goosefoot): 4 (weed kill ratio 70% or more, less than 90%)
